According to patent publication US8916551B2, “Heterocyclic compound and use thereof” (Takeda Pharmaceutical Company Limited, priority 2010, dated 2014):

What was measured:
[1] = molecular target: T1, AMPA receptor (human GluR1 flip/stargazin expressed in CHO-K1 cells) (Homo sapiens, UniProt P42261); assay: AMPA receptor function enhancing activity using calcium influx as index; type: cell-based; conditions: test compound 30 μM with 3 mM glutamic acid, change in fluorescence level in 3 min, 100% = 3 mM glutamic acid + 300 μM cyclothiazide, 0% = 3 mM glutamic acid only
T1 construct: expressed in transfected cells; host or cells: CHO-K1
Method in brief: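 CHO-K1 clone stably co-expressing human GluR1 flip and stargazin, loaded with Calcium 4 dye plus probenecid. Compound at 30 μM was added with glutamate (3 mM final) and fluorescence change followed over 3 min. Activity is expressed as % of the 3 mM glutamate plus 300 μM cyclothiazide response, with glutamate alone as 0%.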

T1 sequence (P42261 19-906 isoform P42261-2 limits assumed): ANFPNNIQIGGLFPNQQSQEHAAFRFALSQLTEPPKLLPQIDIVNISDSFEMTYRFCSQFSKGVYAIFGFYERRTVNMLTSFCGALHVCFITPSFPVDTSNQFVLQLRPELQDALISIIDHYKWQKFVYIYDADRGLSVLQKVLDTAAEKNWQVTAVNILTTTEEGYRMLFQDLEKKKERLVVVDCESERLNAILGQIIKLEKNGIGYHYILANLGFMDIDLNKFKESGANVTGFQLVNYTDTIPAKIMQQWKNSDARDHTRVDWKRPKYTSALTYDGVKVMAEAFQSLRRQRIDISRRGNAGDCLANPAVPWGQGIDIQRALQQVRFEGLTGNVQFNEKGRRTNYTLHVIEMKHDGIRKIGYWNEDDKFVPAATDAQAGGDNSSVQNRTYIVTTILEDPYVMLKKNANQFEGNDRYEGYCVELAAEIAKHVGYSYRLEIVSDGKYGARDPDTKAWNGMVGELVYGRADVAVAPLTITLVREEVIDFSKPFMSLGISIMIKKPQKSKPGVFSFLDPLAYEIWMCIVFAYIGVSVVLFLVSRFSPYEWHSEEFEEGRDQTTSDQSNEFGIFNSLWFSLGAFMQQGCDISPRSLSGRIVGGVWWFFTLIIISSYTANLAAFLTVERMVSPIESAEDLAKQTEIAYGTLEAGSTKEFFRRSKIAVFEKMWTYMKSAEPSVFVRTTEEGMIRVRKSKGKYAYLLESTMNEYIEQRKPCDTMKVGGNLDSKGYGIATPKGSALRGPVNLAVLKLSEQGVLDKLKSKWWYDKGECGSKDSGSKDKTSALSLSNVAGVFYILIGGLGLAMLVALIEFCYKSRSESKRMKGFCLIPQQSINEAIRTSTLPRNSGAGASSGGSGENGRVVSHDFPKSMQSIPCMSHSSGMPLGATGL
T1 sequence (Q9Y698 whole entry partner): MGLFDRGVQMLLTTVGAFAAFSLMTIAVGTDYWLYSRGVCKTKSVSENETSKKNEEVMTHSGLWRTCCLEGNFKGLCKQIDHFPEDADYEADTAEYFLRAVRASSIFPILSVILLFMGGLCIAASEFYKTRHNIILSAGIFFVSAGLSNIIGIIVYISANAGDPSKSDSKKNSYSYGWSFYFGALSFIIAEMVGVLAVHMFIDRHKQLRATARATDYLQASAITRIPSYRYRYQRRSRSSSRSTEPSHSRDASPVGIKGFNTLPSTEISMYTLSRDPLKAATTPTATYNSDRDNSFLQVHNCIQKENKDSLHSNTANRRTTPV

| Structure (SMILES) | activity (%) [1] [%] | melting point [°C] |
| --- | --- | --- |
| CC(F)(F)c1cccc(Oc2ccc(C3CCCN4CCS(=O)(=O)N=C34)cc2)c1 (centres unmarked) [Example 157, 9-{4-[3-(1,1-difluoroethyl)phenoxy]phenyl}-3,4,6,7,8,9-hexahydropyrido[2,1-c][1,2,4]thiadiazine 2,2-dioxide] | 89 | 117 to 118 |
| O=S1(=O)CCN2CCCC(c3ccc(C(F)(F)F)cc3)C2=N1 (centres unmarked) [Example 175, 9-[4-(trifluoromethyl)phenyl]-3,4,6,7,8,9-hexahydropyrido[2,1-c][1,2,4]thiadiazine 2,2-dioxide] | 53 | 226 to 227 |
| O=S1(=O)CCN2C=CC=C(c3ccc(OC4CCCCC4)cc3)C2=N1 [Example 182, 9-[4-(cyclohexyloxy)phenyl]-3,4-dihydropyrido[2,1-c][1,2,4]thiadiazine 2,2-dioxide] | 80 | 272 to 274 |
| N#Cc1ccc(Oc2ccc(C3CCCN4CCS(=O)(=O)N=C34)cc2)cc1Cl (centres unmarked) [Example 183, 2-chloro-4-[4-(2,2-dioxido-3,4,6,7,8,9-hexahydropyrido[2,1-c][1,2,4]thiadiazin-9-yl)phenoxy]benzonitrile] | 91 | 219 to 220 |
| O=S1(=O)CCN2C=CC=C(c3ccc(Oc4ccccc4)nc3)C2=N1 [Example 191, 9-(6-phenoxypyridin-3-yl)-3,4-dihydropyrido[2,1-c][1,2,4]thiadiazine 2,2-dioxide] | 74 | 244 to 245 |
| O=S1(=O)CCN2C=CC=C(c3ccc(Oc4ccc(O)cc4)cc3)C2=N1 [Example 198, 4-[4-(2,2-dioxido-3,4-dihydropyrido[2,1-c][1,2,4]thiadiazin-9-yl)phenoxy]phenol] | 87 | 289 to 290 |
| O=S1(=O)CCN2C=CC=C(c3ccc(Oc4ccc(F)cc4)cc3)C2=N1 [Example 199, 9-[4-(4-fluorophenoxy)phenyl]-3,4-dihydropyrido[2,1-c][1,2,4]thiadiazine 2,2-dioxide] | 79 | 266 to 267 |
| O=S1(=O)CCN2CCCC(c3ccc(Oc4cccc(Cl)c4)cc3)C2=N1 (centres unmarked) [Example 201, 9-[4-(3-chlorophenoxy)phenyl]-3,4,6,7,8,9-hexahydropyrido[2,1-c][1,2,4]thiadiazine 2,2-dioxide] | 74 | 165 to 167 |
| COC1=C(c2ccc(Oc3ccccc3)cc2)C2=NS(=O)(=O)CCN2C=C1 [Example 204, 8-methoxy-9-(4-phenoxyphenyl)-3,4-dihydropyrido[2,1-c][1,2,4]thiadiazine 2,2-dioxide] | 70 | 269 to 270 |
| O=S1(=O)CCN2C=CC(Cl)=C(c3ccc(Oc4ccccc4)cc3)C2=N1 [Example 205, 8-chloro-9-(4-phenoxyphenyl)-3,4-dihydropyrido[2,1-c][1,2,4]thiadiazine 2,2-dioxide] | 67 | 283 to 284 |
| O=S1(=O)CCN2C=C(F)C=C(c3ccc(Oc4ccccc4)cc3)C2=N1 [Example 206, 7-fluoro-9-(4-phenoxyphenyl)-3,4-dihydropyrido[2,1-c][1,2,4]thiadiazine 2,2-dioxide] | 84 | 91.9 to 92 |
| CC1=CN2CCS(=O)(=O)N=C2C(c2ccc(Oc3ccccc3)cc2)=N1 [Example 207, 7-methyl-9-(4-phenoxyphenyl)-3,4-dihydropyrazino[2,1-c][1,2,4]thiadiazine 2,2-dioxide] | 78 | 92 to 92.5 |
| CC(C)Oc1ccc(C2=CC=CN3CCS(=O)(=O)N=C23)cc1Cl [Example 208, 9-[3-chloro-4-(1-methylethoxy)phenyl]-3,4-dihydropyrido[2,1-c][1,2,4]thiadiazine 2,2-dioxide] | 79 | 239 to 240 |
